Data taken from PubChem BioAssay (NCI).
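All cell lines were grown in 96-well plates and treated with compound for 48 hours. TGI is the concentration that stops growth completely.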

Legend:
Test in all cases: growth of human tumour cells (NCI), 48 h
[1] = test system: OVCAR-8 ovarian
[2] = test system: SF-295 CNS
[3] = test system: CAKI-1 renal
[4] = test system: T-47D breast
[5] = test system: HCT-116 colon
[6] = test system: SK-MEL-28 melanoma
[7] = test system: HCC-2998 colon
[8] = test system: SNB-19 CNS
[9] = test system: MDA-MB-231 breast
[10] = test system: NCI/ADR-RES ovarian
[11] = test system: SW-620 colon
[12] = test system: MCF7 breast
[13] = test system: COLO 205 colon
[14] = test system: NCI-H460 lung
[15] = test system: UACC-257 melanoma
[16] = test system: SF-268 CNS
[17] = test system: SK-OV-3 ovarian
[18] = test system: SN12C renal
[19] = test system: MDA-MB-435
[20] = test system: SK-MEL-2 melanoma
[21] = test system: RXF 393 renal
[22] = test system: LOX IMVI melanoma
[23] = test system: OVCAR-4 ovarian
[24] = test system: OVCAR-3 ovarian
[25] = test system: PC-3 prostate
[26] = test system: NCI-H23 lung
[27] = test system: HL-60(TB) leukemia
[28] = test system: IGROV1 ovarian
[29] = test system: HCT-15 colon
[30] = test system: UACC-62 melanoma
[31] = test system: HS 578T breast
[32] = test system: OVCAR-5 ovarian
[33] = test system: DU-145 prostate
[34] = test system: EKVX NSCLC
[35] = test system: KM12 colon
[36] = test system: NCI-H522 lung
[37] = test system: HOP-92 NSCLC
[38] = test system: RPMI-8226 leukemia
[39] = test system: ACHN renal
[40] = test system: HT29 colon
[41] = test system: MALME-3M melanoma
[42] = test system: UO-31 renal
[43] = test system: SK-MEL-5 melanoma
[44] = test system: HOP-62 NSCLC
[45] = test system: SF-539 CNS
[46] = test system: U251 CNS
[47] = test system: TK-10 renal
[48] = test system: A498 renal
[49] = test system: BT-549 breast
[50] = test system: K-562 leukemia
[51] = test system: CCRF-CEM leukemia
[52] = test system: M14 melanoma
[53] = test system: 786-0 renal
[54] = test system: A549 NSCLC
[55] = test system: NCI-H226 lung
[56] = test system: MDA-N
[57] = test system: SNB-75 CNS
[58] = test system: SR leukemia
[59] = test system: MOLT-4 leukemia

Structure (SMILES): O=C(O)/C(Cc1ccc([N+](=O)[O-])cc1)=N\O
- TGI [1]: > 100 µM
- TGI [2]: > 100 µM
- TGI [3]: > 100 µM
- TGI [4]: > 100 µM
- TGI [5]: > 100 µM
- TGI [6]: > 100 µM
- TGI [7]: > 100 µM
- TGI [8]: > 100 µM
- TGI [9]: > 100 µM
- TGI [10]: > 100 µM
- TGI [11]: > 100 µM
- TGI [12]: > 100 µM
- TGI [13]: > 100 µM
- TGI [14]: > 100 µM
- TGI [15]: > 100 µM
- TGI [16]: > 100 µM
- TGI [17]: > 100 µM
- TGI [18]: > 100 µM
- TGI [19]: > 100 µM
- TGI [20]: > 100 µM
- TGI [21]: > 100 µM
- TGI [22]: > 100 µM
- TGI [23]: > 100 µM
- TGI [24]: > 100 µM
- TGI [25]: > 100 µM
- TGI [26]: > 100 µM
- TGI [27]: > 100 µM
- TGI [28]: > 100 µM
- TGI [29]: > 100 µM
- TGI [30]: > 100 µM
- TGI [31]: > 100 µM
- TGI [32]: > 100 µM
- TGI [33]: > 100 µM
- TGI [34]: > 100 µM
- TGI [35]: > 100 µM
- TGI [36]: > 100 µM
- TGI [37]: > 100 µM
- TGI [38]: > 100 µM
- TGI [39]: > 100 µM
- TGI [40]: > 100 µM
- TGI [41]: > 100 µM
- TGI [42]: > 100 µM
- TGI [43]: > 100 µM
- TGI [44]: > 100 µM
- TGI [45]: > 100 µM
- TGI [46]: > 100 µM
- TGI [47]: > 100 µM
- TGI [48]: > 100 µM
- TGI [49]: > 100 µM
- TGI [50]: > 100 µM
- TGI [51]: > 100 µM
- TGI [52]: > 100 µM
- TGI [53]: > 100 µM
- TGI [54]: > 100 µM
- TGI [55]: > 100 µM
- TGI [56]: > 100 µM

Structure (SMILES): CN/N=C(\C)C(CN(C)C)C(c1ccccc1)c1c(O)c2ccccc2oc1=O (centres undefined)
- TGI [1]: > 100 µM
- TGI [2]: > 100 µM
- TGI [3]: > 100 µM
- TGI [4]: > 100 µM
- TGI [5]: > 100 µM
- TGI [6]: > 100 µM
- TGI [7]: > 100 µM
- TGI [8]: > 100 µM
- TGI [9]: > 100 µM
- TGI [10]: > 100 µM
- TGI [11]: > 100 µM
- TGI [12]: > 100 µM
- TGI [13]: > 100 µM
- TGI [14]: > 100 µM
- TGI [15]: > 100 µM
- TGI [16]: > 100 µM
- TGI [18]: > 100 µM
- TGI [19]: > 100 µM
- TGI [20]: > 100 µM
- TGI [21]: > 100 µM
- TGI [22]: > 100 µM
- TGI [23]: > 100 µM
- TGI [24]: > 100 µM
- TGI [57]: > 100 µM
- TGI [25]: > 100 µM
- TGI [26]: > 100 µM
- TGI [27]: > 100 µM
- TGI [28]: > 100 µM
- TGI [29]: > 100 µM
- TGI [30]: > 100 µM
- TGI [31]: > 100 µM
- TGI [32]: > 100 µM
- TGI [33]: > 100 µM
- TGI [34]: > 100 µM
- TGI [35]: > 100 µM
- TGI [36]: > 100 µM
- TGI [58]: > 100 µM
- TGI [37]: 6.78 µM
- TGI [38]: > 100 µM
- TGI [39]: > 100 µM
- TGI [40]: > 100 µM
- TGI [41]: > 100 µM
- TGI [42]: > 100 µM
- TGI [43]: > 100 µM
- TGI [44]: > 100 µM
- TGI [45]: > 100 µM
- TGI [59]: > 100 µM
- TGI [46]: > 100 µM
- TGI [47]: > 100 µM
- TGI [48]: > 100 µM
- TGI [49]: > 100 µM
- TGI [50]: > 100 µM
- TGI [51]: > 100 µM
- TGI [52]: > 100 µM
- TGI [53]: > 100 µM
- TGI [54]: > 100 µM
- TGI [55]: > 100 µM
- TGI [56]: > 100 µM

Structure (SMILES): Clc1ccc(C2Nc3ccccc3C3=NCCN32)cc1 (centres undefined)
- TGI [1]: 38.3 µM
- TGI [2]: 35.4 µM
- TGI [3]: > 100 µM
- TGI [4]: 46.9 µM
- TGI [5]: 71.5 µM
- TGI [6]: 34.6 µM
- TGI [8]: 94.9 µM
- TGI [9]: > 100 µM
- TGI [10]: 60.4 µM
- TGI [11]: 98.6 µM
- TGI [12]: 57.3 µM
- TGI [13]: 25.7 µM
- TGI [14]: 53 µM
- TGI [15]: 36 µM
- TGI [16]: 84.5 µM
- TGI [17]: > 100 µM
- TGI [18]: > 100 µM
- TGI [19]: 39.8 µM
- TGI [20]: 41.3 µM
- TGI [21]: 58.8 µM
- TGI [22]: 36.2 µM
- TGI [23]: > 100 µM
- TGI [24]: > 100 µM
- TGI [25]: > 100 µM
- TGI [26]: 55.4 µM
- TGI [27]: 57.1 µM
- TGI [28]: 49.2 µM
- TGI [29]: > 100 µM
- TGI [30]: 32.3 µM
- TGI [31]: > 100 µM
- TGI [32]: > 100 µM
- TGI [33]: > 100 µM
- TGI [34]: 93.7 µM
- TGI [35]: 40.2 µM
- TGI [58]: 59.2 µM
- TGI [37]: 34 µM
- TGI [38]: 42.4 µM
- TGI [39]: > 100 µM
- TGI [40]: 38.5 µM
- TGI [41]: 32.1 µM
- TGI [42]: > 100 µM
- TGI [43]: 34.4 µM
- TGI [44]: > 100 µM
- TGI [45]: 30.6 µM
- TGI [59]: > 100 µM
- TGI [46]: 78.6 µM
- TGI [47]: 39.5 µM
- TGI [48]: 63.7 µM
- TGI [49]: 56.5 µM
- TGI [50]: 46.2 µM
- TGI [51]: > 100 µM
- TGI [52]: 30.6 µM
- TGI [53]: 48.9 µM
- TGI [54]: > 100 µM
- TGI [56]: 39.8 µM
